For the assay, the system named is youths with autistic disorder. Description: 12-week single-blind placebo lead-in trial of acamprosate in youths with autistic disorder: behavioral outcome measures. It is filed as in vivo, human. The protocol: One study was a 12-week single-blind, placebo-controlled trial of acamprosate in 12 youths with autistic disorder was conducted. The primary outcome measured was the Clinical Global Impression Improvement (CGI-I) scale with several additional behavioral secondary outcome measures employed. In this study, secreted amyloid precursor protein (sAPP) was measured pre- and post acamprosate treatment as blood biomarker assay Result: Twelve subjects (mean age=10.4 yrs.) entered the study and nine subjects completed a two week placebo lead-in and entered active treatment (mean final dose=1,073 mg/day). Six of nine (67%) subjects receiving acamprosate were judged treatment responders with a CGI-I score of 1 “very much improved” or 2 “much improved”. […] Among secondary outcome measures analyzed, significant acamprosate-associated improvement was noted on measures of social behavior and hyperactivity. Acamprosate use was also associated with reductions in sAPP levels.
The first project enrolled 12 youth aged 5 to 17 years with fragile X syndrome and comorbid ASD in a 10-week open-label trial of acamprosate. The second project enrolled 12 youth aged 5 to 17 years diagnosed with idiopathic ASD in a 12-week single-blind placebo lead-in study of acamprosate. In both projects, concomitant dosing of psychotropic drugs remained stable throughout study. In each project, pre- and post-acamprosate treatment plasma levels of sAPP total and sAPPα were obtained. All APP assay samples were collected, chilled, and walked within 2 hours of blood draw to the lab for analysis. Plasma sAPP total and sAPPα were determined separately in serum using the ELISA kit obtained from Immuno Biological Laboratories (IBL, Gumma, Japan). The ELISA kit is validated to measure levels of sAPPα in human samples and able to detect as low as 0.09 ng/ml of sAPPα in a typical sample, with only 0.3% cross-reactivity to sAPP. Levels of sAPP total and sAPPα in plasma were reported in nanograms per milliliter (ng/mL). Statistical analyses of pre- and post-acamprosate sAPP total and sAPPα levels were conducted using paired T-tests. Finally an exploratory post-hoc analysis of potential correlation between percent change in sAPP total or sAPPα and percent change in scores on the Aberrant Behavior Checklist Social Withdrawal/Lethargy subscale (ABC-SW) was conducted. The ABC-SW measures social impairment which is a core symptom domain of ASD. Post-hoc analysis was done with Spearman correlation calculations. All data was analyzed in IBM SPSS Version 20.
A 12-week single-blind, placebo-controlled trial of the effect of acamprosate in the treatment of 12 youths with autistic disorder aged 5 to 17 years was carried out. In order to pilot test use of acamprosate in youth with autism targeting core social impairment, was conducted. All subjects and their family members were blinded to treatment status. All subjects participated in a 2 week placebo-lead-in phase prior to 10 weeks of treatment with acamprosate. For this project, enteric coated commercially available 333 mg acamprosate pills were over-encapsulated and identical matching placebo manufactured for the project. Placebo-responders, defined by a Clinical Global Impressions Improvement scale (CGI-I) score of 1 “very much improved” or 2 “much improved” (ratings anchored to core social deficits) at week 2 were asked to exit the study. During active treatment with acamprosate, dosing was increased in 333 mg increments per week over the first six weeks of active treatment to a maximum dose of 1,332 mg/day (weight<5 60 kg) or 1,998 mg/day (weight>60 kg). During the final four weeks of active drug treatment, subjects were maintained on a stable highest tolerated (optimal) dose. The primary outcome measure was the clinician-rated CGI-I anchored to symptoms of social impairment. […]

Experimental findings from patent publication US11733243B2, “Use of acamprosate to modulate ERK1/2 activation in animal models for FXS and ASD and individuals diagnosed with FXS and ASD” (Indiana University Research and Technology Corporation, priority 2013, dated 2023) are described below.

Take `CC(=O)NCCCS(=O)(=O)O` [Acamprosate, 3-Acetamidopropane-1-sulfonic acid]: for the setting “idiopathic ASD, nine subjects receiving acamprosate, mean final dose 1,073 mg/day”, the “treatment responders (CGI-I score of 1 or 2)” value was determined as 67%. Also, the “mean CGI-I at last visit” value (idiopathic ASD, nine subjects, last observation carried forward) is listed as 2. Also, the CGI-S at endpoint (idiopathic ASD, baseline 4.22+/-0.4, p=0.013) was 3.7+/−0.5. Further, where the note is “idiopathic ASD, baseline 14.1+/-8.5, p=0.019”, the “ABC Lethargy/Social Withdrawal subscale (ABC-SW) at endpoint” value is listed as 10.0+/−8.4. Also, the “ABC Hyperactivity subscale at endpoint” value (idiopathic ASD, baseline 25.4+/-12.6, p=0.005) was 16.6+/−12.4. In addition, the ADHD-RS at endpoint (idiopathic ASD, baseline 29.5+/-10.4, p=0.002) is reported as 20.75+/−9.7. The “SRS total raw score at endpoint” value (idiopathic ASD, baseline 107+/-28, p=0.002) is listed as 91.4+/−30. Also, the “youth judged responders to acamprosate (of those treated)” value (youth with idiopathic ASD) is listed as 6 of 9.
